The text below walks through data of patent EP4467141A1, “PYRAZOLO-QUINOLINES AS SELECTIVE INHIBITORS OF GENOTOXIC STRESS-INDUCED IKK/NF- KB PATHWAYS FOR CANCER THERAPY” (Max-Delbrück-Centrum für Molekulare Medizin in der …, priority 2023, dated 2024).

What all share (assay): Kinase panel study
Common to all, as to type: biochemical
Common to all, as to conditions: read-out: Percentage of inhibition; for inhibition at 1 µM: 1000nM; for inhibition at 10 µM: 10000nM

One assay deals with T1, EPHA8 (Homo sapiens, UniProt P29322).
T1 construct: purchased Thermo Fisher Scientific
T1 sequence (P29322 28-1005): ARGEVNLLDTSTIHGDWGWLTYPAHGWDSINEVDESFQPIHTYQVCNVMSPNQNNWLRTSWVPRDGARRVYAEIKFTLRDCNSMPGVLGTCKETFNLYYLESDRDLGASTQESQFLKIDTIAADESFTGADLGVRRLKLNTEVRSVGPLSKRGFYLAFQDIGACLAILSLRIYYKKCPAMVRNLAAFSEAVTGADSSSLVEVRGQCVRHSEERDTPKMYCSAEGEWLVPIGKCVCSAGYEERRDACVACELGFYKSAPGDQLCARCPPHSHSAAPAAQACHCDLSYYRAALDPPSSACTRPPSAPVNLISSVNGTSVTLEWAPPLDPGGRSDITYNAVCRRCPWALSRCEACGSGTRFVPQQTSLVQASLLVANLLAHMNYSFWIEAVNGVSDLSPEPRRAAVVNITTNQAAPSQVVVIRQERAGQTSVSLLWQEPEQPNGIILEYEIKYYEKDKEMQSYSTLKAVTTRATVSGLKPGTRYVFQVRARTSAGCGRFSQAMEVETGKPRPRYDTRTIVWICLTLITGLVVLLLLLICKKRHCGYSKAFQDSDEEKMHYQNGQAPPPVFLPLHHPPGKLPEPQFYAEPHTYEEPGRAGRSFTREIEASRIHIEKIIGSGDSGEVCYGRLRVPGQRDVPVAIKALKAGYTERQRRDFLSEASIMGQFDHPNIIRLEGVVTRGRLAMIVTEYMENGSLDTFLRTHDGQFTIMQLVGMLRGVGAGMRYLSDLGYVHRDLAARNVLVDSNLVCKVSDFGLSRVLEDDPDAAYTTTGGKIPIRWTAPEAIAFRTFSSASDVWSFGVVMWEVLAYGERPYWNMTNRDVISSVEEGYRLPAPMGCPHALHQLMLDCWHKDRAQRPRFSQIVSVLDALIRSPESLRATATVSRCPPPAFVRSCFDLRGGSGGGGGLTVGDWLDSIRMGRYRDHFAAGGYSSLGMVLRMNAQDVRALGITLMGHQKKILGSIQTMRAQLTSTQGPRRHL
The gist of the method:
(§1)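 In vitro, kinase panel; ZLyte or Adapta SOP; single-concentration testing (1 or 10 µM); output = % inhibition, plus IC50 in panel.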

The next assay concerns the target T2, CDK4/cyclin D3 (Homo sapiens, UniProt P11802).
T2 construct: purchased Thermo Fisher Scientific
Put shortly: as §1

Another assay addresses T3, EPHB1 (Homo sapiens, UniProt P54762).
T3 construct: purchased Thermo Fisher Scientific
T3 sequence (P54762 18-984): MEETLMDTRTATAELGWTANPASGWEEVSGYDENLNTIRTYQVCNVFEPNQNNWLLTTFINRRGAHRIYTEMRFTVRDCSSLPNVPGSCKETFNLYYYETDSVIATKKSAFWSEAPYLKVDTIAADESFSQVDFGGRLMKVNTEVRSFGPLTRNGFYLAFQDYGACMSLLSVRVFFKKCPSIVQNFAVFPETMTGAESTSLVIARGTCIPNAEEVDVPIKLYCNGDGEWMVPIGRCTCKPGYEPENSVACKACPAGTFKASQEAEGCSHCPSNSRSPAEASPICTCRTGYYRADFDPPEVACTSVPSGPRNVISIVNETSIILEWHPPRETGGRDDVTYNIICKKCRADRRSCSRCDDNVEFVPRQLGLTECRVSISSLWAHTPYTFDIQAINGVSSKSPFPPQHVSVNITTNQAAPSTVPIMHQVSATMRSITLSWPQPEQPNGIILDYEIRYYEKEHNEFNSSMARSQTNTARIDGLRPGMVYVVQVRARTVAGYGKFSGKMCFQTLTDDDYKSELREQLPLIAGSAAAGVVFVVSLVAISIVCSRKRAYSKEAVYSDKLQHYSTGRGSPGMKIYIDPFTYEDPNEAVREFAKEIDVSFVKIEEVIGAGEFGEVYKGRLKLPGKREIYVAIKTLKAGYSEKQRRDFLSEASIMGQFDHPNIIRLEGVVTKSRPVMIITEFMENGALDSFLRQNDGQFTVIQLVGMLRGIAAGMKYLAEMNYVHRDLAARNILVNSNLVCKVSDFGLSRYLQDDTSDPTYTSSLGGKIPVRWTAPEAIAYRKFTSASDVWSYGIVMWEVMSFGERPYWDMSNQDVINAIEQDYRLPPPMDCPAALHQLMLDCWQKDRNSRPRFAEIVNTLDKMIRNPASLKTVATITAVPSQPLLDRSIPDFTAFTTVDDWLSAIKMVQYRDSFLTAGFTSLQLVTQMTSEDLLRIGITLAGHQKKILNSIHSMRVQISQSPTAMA
The gist of the method: as §1

Usually inhibition stands for the relative decrease from the control value, in per cent.

T2 sequence (P11802 whole entry): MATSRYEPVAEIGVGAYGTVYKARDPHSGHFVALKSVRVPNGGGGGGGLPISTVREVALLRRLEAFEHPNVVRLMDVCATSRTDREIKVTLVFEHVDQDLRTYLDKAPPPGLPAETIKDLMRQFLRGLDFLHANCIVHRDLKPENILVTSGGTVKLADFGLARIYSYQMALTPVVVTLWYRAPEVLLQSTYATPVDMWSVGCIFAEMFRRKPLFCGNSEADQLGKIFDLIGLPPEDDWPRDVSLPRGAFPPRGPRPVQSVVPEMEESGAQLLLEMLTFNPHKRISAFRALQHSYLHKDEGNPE
T2 sequence (P30281 whole entry partner): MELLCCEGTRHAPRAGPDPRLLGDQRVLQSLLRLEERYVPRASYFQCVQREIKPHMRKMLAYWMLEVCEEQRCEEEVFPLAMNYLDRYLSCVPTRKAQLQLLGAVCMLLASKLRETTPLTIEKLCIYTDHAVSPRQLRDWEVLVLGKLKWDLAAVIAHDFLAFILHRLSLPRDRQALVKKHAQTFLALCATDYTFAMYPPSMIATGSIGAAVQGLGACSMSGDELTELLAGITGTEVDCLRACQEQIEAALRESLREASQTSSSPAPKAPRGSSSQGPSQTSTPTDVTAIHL

For `COc1ccc2c(c1OC)c(=O)n1c3ccc(O)cc3c3ccnc2c31` [MW01, 5-Hydroxy-10,11-dimethoxy-9H-benzo[c]indolo[3,2,1-ij][1,5]naphthyridin-9-one], the inhibition at 1 µM on EPHA8 was 4%; on CDK4/cyclin D3, -2%; on EPHB1, -3%. The inhibition at 10 µM at EPHA8 is 21%; at CDK4/cyclin D3, -6%; at EPHB1, 9%.
As to `COc1ccc2cc3c(N)nn(C(=O)c4cccc(N(C)C)c4)c3nc2c1` [MW05, (3-Amino-7-methoxypyrazolo[3,4-b]quinolin-1-yl)-[3-(dimethylamino)phenyl]methanone], the inhibition at 1 µM on EPHA8 is -1%; on CDK4/cyclin D3, -6%; at EPHB1, -3%. Also, the inhibition at 10 µM at EPHA8 was -9%; at CDK4/cyclin D3, -8%; on EPHB1, -6%.
